# In patent US7511144B2, “Reverse hydroxamic acid derivatives” (Kaken Pharmaceutical Co., Ltd., priority 2001, dated 2009):
# pIC50: −log10 of the molar value.
# Tests used:
# Assay type in all cases: biochemical
# TACE = target: T1, TACE (Homo sapiens, UniProt P78536); assay: TACE inhibition experiment (in vitro)
# T1 construct: made in house; host or cells: mammalian cells or insect cells
# Human MMP1 = target: T2, Human MMP1 (Homo sapiens, UniProt P03956); assay: MMP1 inhibition experiment; details: read-out: IC50 value MMP-1
# T2 construct: purchased Calbiochem 444208
# T2 sequence (P03956 100-469): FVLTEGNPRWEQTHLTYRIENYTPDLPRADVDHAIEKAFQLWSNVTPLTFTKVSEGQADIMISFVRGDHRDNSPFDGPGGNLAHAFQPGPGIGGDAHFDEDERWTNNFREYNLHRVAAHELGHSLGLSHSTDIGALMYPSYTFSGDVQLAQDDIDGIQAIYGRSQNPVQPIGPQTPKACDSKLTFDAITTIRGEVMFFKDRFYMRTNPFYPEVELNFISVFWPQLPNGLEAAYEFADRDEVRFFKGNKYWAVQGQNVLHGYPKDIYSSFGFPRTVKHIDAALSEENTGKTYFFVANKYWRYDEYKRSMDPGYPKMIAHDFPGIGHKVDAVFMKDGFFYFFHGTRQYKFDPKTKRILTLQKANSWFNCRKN
# Human MMP2 = target: T3, Human MMP2 (Homo sapiens, UniProt P08253); assay: MMP2 inhibition experiment; details: concentration required for 50% inhibition of enzyme activity; read-out: IC50 value MMP-2
# T3 construct: purchased Calbiochem 444213
# T3 sequence (P08253 110-660): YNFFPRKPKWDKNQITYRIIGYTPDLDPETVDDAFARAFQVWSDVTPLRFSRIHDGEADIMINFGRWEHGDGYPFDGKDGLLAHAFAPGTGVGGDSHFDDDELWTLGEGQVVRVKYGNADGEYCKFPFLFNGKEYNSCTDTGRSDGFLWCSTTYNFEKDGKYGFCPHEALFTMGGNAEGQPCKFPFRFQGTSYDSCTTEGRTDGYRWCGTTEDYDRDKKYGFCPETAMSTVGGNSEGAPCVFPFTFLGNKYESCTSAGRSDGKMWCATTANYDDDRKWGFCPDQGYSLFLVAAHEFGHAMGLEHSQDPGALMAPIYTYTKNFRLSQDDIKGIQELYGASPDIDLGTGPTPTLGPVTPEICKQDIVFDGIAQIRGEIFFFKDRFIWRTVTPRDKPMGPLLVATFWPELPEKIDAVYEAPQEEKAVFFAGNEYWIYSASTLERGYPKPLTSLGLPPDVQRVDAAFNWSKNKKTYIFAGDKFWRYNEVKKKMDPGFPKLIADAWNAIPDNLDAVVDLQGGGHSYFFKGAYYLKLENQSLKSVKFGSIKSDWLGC
# Human MMP3 = target: T4, Human MMP3 (Homo sapiens, UniProt P08254); assay: MMP3 inhibition experiment; details: concentration required for 50% inhibition of enzyme activity; read-out: IC50 value MMP-3
# T4 construct: purchased Calbiochem 444217
# Summary of the method: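 Fluorescence-quenched substrate NFF-3 (MOCAc/Dnp peptide, 20 μM as prepared) cleaved by 5 ng human MMP3 over 5 hours at 37° C, with inhibition measured from substrate fluorescence.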
# Human MMP8 = target: T5, Human MMP8 (Homo sapiens, UniProt P22894); assay: MMP8 inhibition experiment; details: concentration required for 50% inhibition of enzyme activity; read-out: IC50 value MMP-8
# T5 construct: purchased Calbiochem 444229
# Protocol: MMP inhibition experiment may be carried out using a fluorescent synthetic substrate according to, for example, the methods of Bickett et al. (D. Mark Bickett et al., Anal. Biochem., 1993, 212, 58-64) and Nagase et al. (H. Nagase et al., J. Biol. Chem., 1994, 269, 20952-20957). The methods of inhibition experiments carried out for various MMPs are described below.
# Human MMP8 (Calbiochem #444229) in amount of 90 μL (30 ng) was activated by mixing with 10 μL of 10 mM APMA, followed by reaction for 1 hour at 37° C. This enzyme solution in amount of 10 μL was diluted to 90 μL with the assay buffer A, which was added to 90 μL of […] fluorescent substrate (MOCAc-Pro-Leu-Gly-Leu-A2pr(Dnp)-Ala-Arg-NH2, Peptide Institute, Inc., #3163-v) prepared in the assay buffer B, followed by reaction for 5 hours at 37° C.
# Human MMP9 = target: T6, Human MMP9 (Homo sapiens, UniProt P14780); assay: MMP9 inhibition experiment; details: read-out: IC50 value MMP-9
# T6 construct: purchased Calbiochem 444231
# Human MMP13 = target: T7, Human MMP13 (Homo sapiens, UniProt P45452); assay: MMP13 inhibition experiment; details: concentration required for 50% inhibition of enzyme activity; read-out: IC50 value MMP-13
# T7 construct: purchased Chemicon CC068
# Human MMP14 = target: T8, Human MMP14 (Homo sapiens, UniProt P50281); assay: MMP14 inhibition experiment; details: concentration required for 50% inhibition of enzyme activity; read-out: IC50 value MMP-14
# T8 construct: purchased Biogenesis or Calbiochem 5980-1461 or 475935
# Summary of the method: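 Fluorescence assay: substrate Dnp-Pro-Cha-Gly-Cys(Me)-His-Ala-Lys(Nma)-NH2 (20 μM before equal-volume mixing) incubated at 37° C for 5 hours with 4 ng human MMP14.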
# Human MMP17 = target: T9, Human MMP17 (Homo sapiens, UniProt Q9ULZ9); assay: MMP17 inhibition test; details: concentration required for 50% inhibition of enzyme activity; read-out: IC50 value MMP-17
# T9 construct: purchased Calbiochem 475940
# T9 sequence (Q9ULZ9 126-300 limits assumed): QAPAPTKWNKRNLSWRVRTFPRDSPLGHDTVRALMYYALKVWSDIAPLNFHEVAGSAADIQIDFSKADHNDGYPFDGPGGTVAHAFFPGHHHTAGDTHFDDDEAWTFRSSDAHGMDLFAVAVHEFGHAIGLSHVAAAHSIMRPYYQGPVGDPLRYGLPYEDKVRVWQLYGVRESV
# T1 sequence (P78536 215-824): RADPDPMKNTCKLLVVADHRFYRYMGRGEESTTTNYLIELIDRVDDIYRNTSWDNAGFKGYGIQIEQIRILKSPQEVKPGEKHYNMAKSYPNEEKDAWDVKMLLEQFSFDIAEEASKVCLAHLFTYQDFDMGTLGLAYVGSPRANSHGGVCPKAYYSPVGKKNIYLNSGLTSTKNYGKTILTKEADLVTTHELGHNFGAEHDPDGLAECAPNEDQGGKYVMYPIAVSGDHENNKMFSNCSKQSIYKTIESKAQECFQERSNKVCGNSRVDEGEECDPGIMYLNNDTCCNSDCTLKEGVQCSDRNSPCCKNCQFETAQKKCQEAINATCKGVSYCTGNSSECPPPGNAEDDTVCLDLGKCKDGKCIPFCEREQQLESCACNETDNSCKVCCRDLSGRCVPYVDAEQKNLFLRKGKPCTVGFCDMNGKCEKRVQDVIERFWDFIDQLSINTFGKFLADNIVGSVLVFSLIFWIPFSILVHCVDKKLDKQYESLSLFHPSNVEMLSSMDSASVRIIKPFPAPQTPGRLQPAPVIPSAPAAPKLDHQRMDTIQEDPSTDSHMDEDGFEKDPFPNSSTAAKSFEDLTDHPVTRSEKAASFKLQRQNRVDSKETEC
# T6 sequence (P14780 107-707 limits assumed): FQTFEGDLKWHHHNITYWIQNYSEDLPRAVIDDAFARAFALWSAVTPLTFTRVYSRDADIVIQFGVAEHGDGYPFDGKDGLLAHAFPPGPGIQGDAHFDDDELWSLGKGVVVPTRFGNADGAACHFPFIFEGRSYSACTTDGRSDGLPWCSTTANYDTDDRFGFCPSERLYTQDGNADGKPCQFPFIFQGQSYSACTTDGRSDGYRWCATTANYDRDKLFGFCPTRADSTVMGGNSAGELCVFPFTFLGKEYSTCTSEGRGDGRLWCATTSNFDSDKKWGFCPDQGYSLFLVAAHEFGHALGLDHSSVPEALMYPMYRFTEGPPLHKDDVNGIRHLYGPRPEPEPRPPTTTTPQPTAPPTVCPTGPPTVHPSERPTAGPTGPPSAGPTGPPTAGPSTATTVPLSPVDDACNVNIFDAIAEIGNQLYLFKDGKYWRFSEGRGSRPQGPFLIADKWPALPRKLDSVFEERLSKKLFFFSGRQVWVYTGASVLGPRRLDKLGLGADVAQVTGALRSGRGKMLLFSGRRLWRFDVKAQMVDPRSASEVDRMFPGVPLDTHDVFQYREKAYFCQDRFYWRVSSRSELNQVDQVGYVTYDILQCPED
# T5 sequence (P22894 101-467): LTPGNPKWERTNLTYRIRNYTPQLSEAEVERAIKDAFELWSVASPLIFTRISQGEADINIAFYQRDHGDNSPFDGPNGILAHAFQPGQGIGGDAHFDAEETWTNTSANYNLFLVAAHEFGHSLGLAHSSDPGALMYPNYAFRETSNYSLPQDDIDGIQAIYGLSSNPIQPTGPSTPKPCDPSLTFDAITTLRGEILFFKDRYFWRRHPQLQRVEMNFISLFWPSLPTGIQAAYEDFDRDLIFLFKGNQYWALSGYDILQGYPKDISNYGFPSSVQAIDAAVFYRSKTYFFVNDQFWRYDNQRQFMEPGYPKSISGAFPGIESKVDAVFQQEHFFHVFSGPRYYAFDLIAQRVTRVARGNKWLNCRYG
# T4 sequence (P08254 100-272 limits assumed): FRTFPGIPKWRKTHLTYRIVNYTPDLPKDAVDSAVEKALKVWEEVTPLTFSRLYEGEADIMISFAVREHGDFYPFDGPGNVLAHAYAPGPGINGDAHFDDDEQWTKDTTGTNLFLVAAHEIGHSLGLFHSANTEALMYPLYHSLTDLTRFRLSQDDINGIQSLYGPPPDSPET
Structure (SMILES),pIC50 (TACE),pIC50 (Human MMP1),pIC50 (Human MMP2),pIC50 (Human MMP3),pIC50 (Human MMP8),pIC50 (Human MMP9),pIC50 (Human MMP13),pIC50 (Human MMP14),pIC50 (Human MMP17)
Cc1cccc(CCC(CS(=O)(=O)c2ccc(OCc3cc(C)nc4ccccc34)cc2)N(O)C=O)c1 (stereo not drawn) [Example I-39],6.68,4.14,4.52,4.62,< 4.00,4.44,4.59,4.37,4.60
COc1ccc(CCC(CS(=O)(=O)c2ccc(OCc3cc(C)nc4ccccc34)cc2)N(O)C=O)cc1 (stereo not drawn) [Example I-35],7.49,4.30,5.38,5.00,4.46,4.43,5.11,4.42,5.22
Cc1cc(COc2ccc(S(=O)(=O)CC(CCC3=CCCC(OC=O)C3)N(O)C=O)cc2)c2ccccc2n1 (stereo not drawn) [Example I-38],7.92,4.24,4.92,5.70,4.34,4.27,4.66,4.30,5.66
COCc1cc(COc2ccc(S(=O)(=O)CC(C=C3CCC(=O)CC3)N(O)C=O)cc2)cc(C)n1 (stereo not drawn) [Example I-119],6.49,< 4.00,4.30,< 4.00,4.22,< 4.00,4.22,< 4.00,4.24
CCC(CC)C(=O)N1CCC(C(CS(=O)(=O)c2ccc(OCc3cc(C)nc4ccccc34)cc2)N(O)C=O)CC1 (stereo not drawn) [Example I-132],7.64,4.28,5.66,6.68,5.10,4.40,5.66,4.80,7.07
Cc1cc(COc2ccc(S(=O)(=O)CC(N(O)C=O)C3(C)CCC(O)CC3)cc2)c2ccccc2n1 (stereo not drawn) [Example I-137],7.62,< 4.00,< 4.00,5.49,4.64,< 4.00,4.30,< 4.00,6.05
COCc1cc(COc2ccc(S(=O)(=O)CC(C=C3CCC(=NO)CC3)N(O)C=O)cc2)cc(C)n1 (stereo not drawn) [Example I-120],6.96,< 4.00,4.66,4.17,4.57,< 4.00,4.21,< 4.00,4.48
CCC(CC)CN1CCC(CC(CS(=O)(=O)c2ccc(OCc3cc(C)nc4ccccc34)cc2)N(O)C=O)CC1 (stereo not drawn) [Example I-71],7.70,< 4.00,6.11,6.40,5.00,4.42,5.85,4.15,7.22
Cc1ccc(CCCC(CS(=O)(=O)c2ccc(OCc3cc(C)nc4ccccc34)cc2)N(O)C=O)cc1 (stereo not drawn) [Example I-37],6.77,4.24,5.57,5.70,4.60,4.66,5.22,4.48,5.96
O=CON=C1CCC(=CC(CS(=O)(=O)c2ccc(OCc3ccc4ccccc4n3)cc2)N(O)C=O)CC1 (stereo not drawn) [Example I-85],6.44,< 4.00,5.35,4.30,4.15,4.25,4.66,4.22,4.51
COCc1cc(COc2ccc(S(=O)(=O)CC(c3ccccc3C)N(O)C=O)cc2)cc(C)n1 (stereo not drawn) [Example I-117],6.21,< 4.00,4.92,4.70,4.70,< 4.00,4.55,< 4.00,4.66
Cc1cc(COc2ccc(S(=O)(=O)CC(C3CCN(C(=O)OC(C)(C)C)CC3)N(O)C=O)cc2)c2ccccc2n1 (stereo not drawn) [Example I-68],7.64,4.10,5.82,6.30,5.10,4.30,6.28,4.40,6.66

# The next compounds have a higher pIC50 (TACE) than those just listed; values first:
pIC50 (TACE),pIC50 (Human MMP1),pIC50 (Human MMP2),pIC50 (Human MMP3),pIC50 (Human MMP8),pIC50 (Human MMP9),pIC50 (Human MMP13),pIC50 (Human MMP14),pIC50 (Human MMP17),Structure (SMILES)
8.40,4.19,5.48,6.19,4.61,5.00,5.46,4.70,6.22,Cc1cc(COc2ccc(S(=O)(=O)CC(C=C3CCN(C(=O)OC(C)(C)C)CC3)N(O)C=O)cc2)c2ccccc2n1 (stereo not drawn) [Example I-18]
7.96,< 4.00,4.96,5.89,4.66,< 4.00,4.52,4.04,5.72,Cc1cc(COc2ccc(S(=O)(=O)CC(CC3CCN(S(C)(=O)=O)CC3)N(O)C=O)cc2)c2ccccc2n1 (stereo not drawn) [Example I-70]
8.30,4.15,4.39,5.22,4.19,4.30,4.70,4.22,5.00,"Cc1ccc2nc(C)cc(COc3ccc(S(=O)(=O)CC(C=C4CCOCC4)N(O)C=O)cc3)c2c1 (stereo not drawn) [Example I-74, N-{2-[4-(2.6-dimethylquinolin-4-ylmethoxy)benzenesulfonyl]-1-(tetrahydropyran-4-ylidenemethyl)ethyl}-N-hydroxyformamide]"
8.28,< 4.00,5.05,6.20,5.01,< 4.00,4.89,< 4.00,6.35,CC(=O)N1CCC(CC(CS(=O)(=O)c2ccc(OCc3cc(C)nc4ccccc34)cc2)N(O)C=O)CC1 (stereo not drawn) [Example I-69]
8.12,< 4.00,4.72,5.74,4.72,< 4.00,4.74,4.05,6.02,Cc1cc(COc2ccc(S(=O)(=O)CC(CC3CCOCC3)N(O)C=O)cc2)c2ccccc2n1 (stereo not drawn) [Example I-29]
8.19,4.32,4.59,5.70,4.89,4.30,4.59,4.30,6.21,Cc1cc(COc2ccc(S(=O)(=O)CC([C@H]3CSC(=O)N3C)N(O)C=O)cc2)c2ccccc2n1 (stereo partly drawn) [Example I-136]
